Activity calls are given as the source filed them. The calls are words filed in the database; no cut-off is given here.
Experiments:
Mus musculus [1] = assay: Antialzheimer activity in scopolamine-induced Swiss albino mouse model assessed as reduction in AChE level at 0.3 to 0.5 mg/kg, po preincubated with compound for 30 mins followed by scopolamine induction and measured after 30 mins; type: functional, organism-based; details: dose 0.3-0.5 mg/kg, time 1.0 hrs
[2] = target: Amyloid-beta precursor protein (Homo sapiens) (UniProt P05067); assay: Inhibition of amyloid beta (1 to 42) (unknown origin) self induced aggregation at 1.521 uM incubated for 72 hrs by ThT fluorescence based assay
Amyloid-beta precursor protein (Homo sapiens), sequence (P05067 whole entry, the tested form may be a part): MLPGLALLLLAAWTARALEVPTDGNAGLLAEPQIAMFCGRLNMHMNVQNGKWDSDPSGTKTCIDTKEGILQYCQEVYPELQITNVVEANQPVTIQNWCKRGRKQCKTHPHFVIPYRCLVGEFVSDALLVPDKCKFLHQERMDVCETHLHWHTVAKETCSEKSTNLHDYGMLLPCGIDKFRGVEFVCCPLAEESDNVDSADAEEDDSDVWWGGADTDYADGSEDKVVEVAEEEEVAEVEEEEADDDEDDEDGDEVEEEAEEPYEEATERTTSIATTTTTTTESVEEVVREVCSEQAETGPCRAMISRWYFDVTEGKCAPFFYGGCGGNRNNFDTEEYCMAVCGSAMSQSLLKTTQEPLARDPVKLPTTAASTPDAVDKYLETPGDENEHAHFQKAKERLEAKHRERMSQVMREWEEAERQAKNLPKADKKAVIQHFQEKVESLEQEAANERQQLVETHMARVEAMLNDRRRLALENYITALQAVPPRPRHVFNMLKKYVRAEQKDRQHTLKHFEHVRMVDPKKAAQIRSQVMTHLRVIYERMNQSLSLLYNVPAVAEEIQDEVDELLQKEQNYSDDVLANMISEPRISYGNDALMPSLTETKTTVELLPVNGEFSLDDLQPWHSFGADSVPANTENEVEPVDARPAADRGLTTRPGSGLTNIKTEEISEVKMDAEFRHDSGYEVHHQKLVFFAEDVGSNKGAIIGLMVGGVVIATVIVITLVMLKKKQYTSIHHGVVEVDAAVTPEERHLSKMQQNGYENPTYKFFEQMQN

Mus musculus [3] = assay: Neuroprotective activity against scopolamine-induced Swiss albino mouse model assessed as increase in NR4A2 mRNA level at 0.3 to 0.5 mg/kg, po measured after 6 days by RT-PCR analysis; type: functional, organism-based; details: dose 0.3-0.5 mg/kg, time 6.0 day
Acetylcholinesterase [4] = target: T1, Acetylcholinesterase (Homo sapiens, UniProt P22303); assay: Displacement of propidium iodide from human AChE PAS assessed as reduction in fluorescence intensity at 5 uM incubated for 6 hrs by fluorescence based analysis relative to control; design: scale not given: the % may be the effect or the level left
T1 sequence (P22303 whole entry): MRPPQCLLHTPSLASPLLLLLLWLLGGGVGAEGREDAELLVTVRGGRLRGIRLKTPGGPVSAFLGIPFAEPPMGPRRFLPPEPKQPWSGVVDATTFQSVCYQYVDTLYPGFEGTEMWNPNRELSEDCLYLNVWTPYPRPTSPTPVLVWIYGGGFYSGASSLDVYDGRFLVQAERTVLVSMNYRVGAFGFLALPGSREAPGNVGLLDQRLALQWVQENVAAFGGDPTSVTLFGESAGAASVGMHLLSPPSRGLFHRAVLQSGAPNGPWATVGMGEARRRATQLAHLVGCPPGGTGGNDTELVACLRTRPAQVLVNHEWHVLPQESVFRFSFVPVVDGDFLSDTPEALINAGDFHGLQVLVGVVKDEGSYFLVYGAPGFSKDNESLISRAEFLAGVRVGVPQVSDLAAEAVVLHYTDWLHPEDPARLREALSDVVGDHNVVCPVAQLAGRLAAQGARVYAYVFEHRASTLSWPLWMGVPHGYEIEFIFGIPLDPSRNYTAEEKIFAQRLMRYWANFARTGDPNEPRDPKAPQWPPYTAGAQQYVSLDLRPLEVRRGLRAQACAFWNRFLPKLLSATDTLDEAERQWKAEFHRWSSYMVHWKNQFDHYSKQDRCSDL

[5] = Antioxidant activity assessed as DPPH radical scavenging activity incubated for 30 mins; type: functional
Acetylcholinesterase [6] = target: T1, Acetylcholinesterase; assay: Inhibition of human recombinant AChE expressed in HEK293 cells using acetylthiocholine iodide as substrate preincubated with compound for 30 mins followed by substrate addition and measured after 30 mins by DTNB reagent based Ellman's method
Acetylcholinesterase [7] = target: T1, Acetylcholinesterase; assay: Displacement of propidium iodide from human AChE PAS assessed as reduction in fluorescence intensity at 0.1 uM incubated for 6 hrs by fluorescence based analysis relative to control; design: scale not given: the % may be the effect or the level left
Mus musculus [8] = assay: Neuroprotective activity against scopolamine-induced Swiss albino mouse model assessed as increase in C-FOS mRNA level at 0.3 to 0.5 mg/kg, po measured after 6 days by RT-PCR analysis; type: functional, organism-based; details: dose 0.3-0.5 mg/kg, time 6.0 day
Mus musculus [9] = assay: Antioxidant activity against scopolamine-induced Swiss albino mouse model assessed as increase in catalase level in brain at 0.3 to 0.5 mg/kg, po by absorbance based analysis; type: functional, organism-based; details: dose 0.3-0.5 mg/kg
Mus musculus [10] = assay: (§1) Antialzheimer activity in scopolamine-induced Swiss albino mouse model assessed as decrease in escape latency at 0.3 to 0.5 mg/kg, po preincubated with compound for 30 mins followed by scopolamine induction and measured after 5 days by Morris water maze test; type: functional, organism-based; details: dose 0.3-0.5 mg/kg, time 7230.0 min
[11] = Metal chelating activity assessed as compound-Cu2+ complex formation by measuring increase in absorption intensity at 300 uM in presence of by UV-vis spectrometry
Mus musculus [12] = assay: as §1, with “improvement” for “decrease”, “memory retention by measuring time spent in platform quadrant” for “escape latency”; type: functional, organism-based; details: dose 0.3-0.5 mg/kg, time 7230.0 min
Cholinesterase = Cholinesterase (Equus caballus, UniProt P81908); assay: Inhibition of equine serum BChE using acetylthiocholine iodide as substrate preincubated with compound for 30 mins followed by substrate addition and measured after 30 mins by DTNB reagent based Ellman's method
Cholinesterase, sequence (P81908 whole entry): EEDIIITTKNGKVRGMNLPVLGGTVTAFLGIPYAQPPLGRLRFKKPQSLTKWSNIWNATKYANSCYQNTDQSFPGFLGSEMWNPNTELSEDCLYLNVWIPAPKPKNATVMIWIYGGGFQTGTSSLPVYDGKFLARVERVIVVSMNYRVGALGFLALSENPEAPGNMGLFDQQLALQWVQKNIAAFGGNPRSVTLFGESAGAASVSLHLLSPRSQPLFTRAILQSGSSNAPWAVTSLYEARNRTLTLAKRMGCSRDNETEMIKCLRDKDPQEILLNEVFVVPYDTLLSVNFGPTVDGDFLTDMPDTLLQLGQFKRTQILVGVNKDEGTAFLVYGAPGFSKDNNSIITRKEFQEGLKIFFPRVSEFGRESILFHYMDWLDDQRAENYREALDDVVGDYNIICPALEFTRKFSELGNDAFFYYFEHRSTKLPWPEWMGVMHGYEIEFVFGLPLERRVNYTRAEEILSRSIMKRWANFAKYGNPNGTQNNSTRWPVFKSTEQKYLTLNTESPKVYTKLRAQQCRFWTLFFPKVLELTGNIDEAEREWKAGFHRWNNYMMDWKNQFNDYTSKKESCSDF

Mus musculus [13] = assay: Neuroprotective activity against scopolamine-induced Swiss albino mouse model assessed as effect on PSD95 mRNA level at 0.3 to 0.5 mg/kg, po measured after 6 days by RT-PCR analysis; type: functional, organism-based; details: dose 0.3-0.5 mg/kg, time 6.0 day
[14] = Metal chelating activity assessed as compound-Fe2+ complex formation by measuring increase in absorption intensity at 300 uM in presence of by UV-vis spectrometry
Acetylcholinesterase [15] = target: T1, Acetylcholinesterase; assay: Displacement of propidium iodide from human AChE PAS assessed as reduction in fluorescence intensity at 1 uM incubated for 6 hrs by fluorescence based analysis relative to control; design: scale not given: the % may be the effect or the level left
[16] = Acute toxicity in Swiss albino mouse assessed as abnormal behavior at 175 mg/kg, po administered for 14 days; type: organism-based; details: in vivo, 336 h, time 14 day
[17] = Acute toxicity in Swiss albino mouse assessed as tremor at 175 mg/kg, po administered for 14 days; type: organism-based; details: in vivo, 336 h, time 14 day
Acetylcholinesterase [18] = target: T1, Acetylcholinesterase; assay: Displacement of propidium iodide from human AChE PAS assessed as reduction in fluorescence intensity at 0.01 uM incubated for 6 hrs by fluorescence based analysis relative to control; design: scale not given: the % may be the effect or the level left
[19] = Toxicity in Drosophila melanogaster Oregon R-positive assessed as reduction in eclosed flies at 40 uM measured for 15 days relative to control; design: scale not given: the % may be the effect or the level left; details: 360 h, time 15 day
Mus musculus [20] = assay: Neuroprotective activity against scopolamine-induced Swiss albino mouse model assessed as effect on GAP43 mRNA level at 0.3 to 0.5 mg/kg, po measured after 6 days by RT-PCR analysis; type: functional, organism-based; details: dose 0.3-0.5 mg/kg, time 6.0 day
PC-12 [21] = assay: Induction of apoptosis in rat PC-12 cells assessed as viable cells at 20 uM incubated for 24 hrs by Annexin V/PI staining based flow cytometry analysis (reference value: 82.8%); type: functional; details: read-out: Activity
PC-12 [22] = assay: Neuroprotective activity against H2O2-induced oxidative stress in rat PC-12 cells assessed as cell viability at 1 to 20 uM preincubated with compound for 24 hrs and followed by H2O2 induction and measured after 24 hrs by MTT assay; type: functional, cell-based; details: dose 1-20 µM, time 48.0 hrs
[23] = Acute toxicity in Swiss albino mouse assessed as body weight gain at 175 mg/kg, po administered for 14 days; type: organism-based; details: in vivo, 336 h, time 14 day
[24] = Permeability of the compound across blood brain barrier; type: ADME; details: read-out: BBB
Drosophila melanogaster [25] = assay: Inhibition of oxidative stress in y-GAL4 driven UAS-amyloid beta (1 to 42) induced Drosophila melanogaster Oregon R-positive assessed as fold increase in ROS level at 10 to 20 uM incubated for 30 mins by H2DCFDA staining based analysis; type: functional; details: dose 10-20 µM, 0.5 h
[26] = Acute toxicity in Swiss albino mouse assessed as animal survival at 175 mg/kg, po administered for 14 days; type: organism-based; details: in vivo, 336 h, time 14 day
Mus musculus [27] = assay: Antioxidant activity against scopolamine-induced Swiss albino mouse model assessed as increase in MDA level at 0.3 to 0.5 mg/kg, po by absorbance based analysis; type: functional, organism-based; details: dose 0.3-0.5 mg/kg
[28] = Acute toxicity in Swiss albino mouse assessed as convulsion at 175 mg/kg, po administered for 14 days; type: organism-based; details: in vivo, 336 h, time 14 day
[29] = target: Amyloid-beta precursor protein (Homo sapiens) (UniProt P05067); assay: Inhibition of amyloid beta (1 to 42) (unknown origin) self induced aggregation at 1.521 uM incubated for 72 hrs by transmission electron microscopic analysis
Drosophila melanogaster [30] = assay: Anti-alzheimer activity in ey-GAL4 driven UAS-amyloid beta (1 to 42) induced Drosophila melanogaster Oregon R-positive assessed as fold increase in superoxide level at 10 uM by fluorescence based analysis; type: functional
Mus musculus [31] = assay: Neuroprotective activity against scopolamine-induced Swiss albino mouse model assessed as increase in CREB1 mRNA level at 0.3 to 0.5 mg/kg, po measured after 6 days by RT-PCR analysis; type: functional, organism-based; details: dose 0.3-0.5 mg/kg, time 6.0 day
Mus musculus [32] = assay: Neuroprotective activity against scopolamine-induced Swiss albino mouse model assessed as upregulation of PKA mRNA level at 0.3 to 0.5 mg/kg, po measured after 6 days by RT-PCR analysis; type: functional, organism-based; details: dose 0.3-0.5 mg/kg, time 6.0 day
PC-12 [33] = assay: Induction of apoptosis in rat PC-12 cells assessed as viable cells at 2.5 uM incubated for 24 hrs by Annexin V/PI staining based flow cytometry analysis (reference value: 82.8%); type: functional; details: read-out: Activity
Mus musculus [34] = assay: Antioxidant activity against scopolamine-induced Swiss albino mouse model assessed as increase in SOD level at 0.3 to 0.5 mg/kg, po by absorbance based analysis; type: functional, organism-based; details: dose 0.3-0.5 mg/kg
PC-12 [35] = assay: Cytotoxicity against rat PC-12 cells assessed as cell viability upto 20 uM measured for 24 hrs by MTT assay; type: toxicity, cell-based; details: pc-12, 24 h
Mus musculus [36] = assay: Neuroprotective activity against scopolamine-induced Swiss albino mouse model assessed as upregulation of MMP9 mRNA level at 0.3 to 0.5 mg/kg, po measured after 6 days by RT-PCR analysis; type: functional, organism-based; details: dose 0.3-0.5 mg/kg, time 6.0 day
PC-12 [37] = assay: Induction of apoptosis in rat PC-12 cells assessed as viable cells at 5 uM incubated for 24 hrs by Annexin V/PI staining based flow cytometry analysis (reference value: 82.8%); type: functional; details: read-out: Activity
PC-12 [38] = assay: Induction of apoptosis in rat PC-12 cells assessed as viable cells at 10 uM incubated for 24 hrs by Annexin V/PI staining based flow cytometry analysis (reference value: 82.8%); type: functional; details: read-out: Activity
Mus musculus [39] = assay: Antialzheimer activity in scopolamine-induced Swiss albino mouse model assessed as reduction in BChE level at 0.3 to 0.5 mg/kg, po preincubated with compound for 30 mins followed by scopolamine induction and measured after 30 mins; type: functional, organism-based; details: dose 0.3-0.5 mg/kg, time 1.0 hrs

SMILES: C[C@@H](c1cccc(OC(=O)NCCc2c[nH]c3ccc(O)cc23)c1)N(C)C
- Activity (Mus musculus [1]): Active
- inhibition [2]: 100%
- Activity (Mus musculus [3]): Active
- Activity (Acetylcholinesterase [4]): 26.2%
- IC50 [5]: 22900 nM
- IC50 (Acetylcholinesterase [6]): 0.99 nM
- Activity (Acetylcholinesterase [7]): 5.56%
- Activity (Mus musculus [8]): Active
- Activity (Mus musculus [9]): Active
- Activity (Mus musculus [10]): Active
- Activity [11]: inactive
- Activity (Mus musculus [12]): Active
- IC50 (Cholinesterase): 27.8 nM
- Activity (Mus musculus [13]): Active
- Activity [14]: inactive
- Activity (Acetylcholinesterase [15]): 18.3%
- Activity [16]: Non-toxic
- Activity [17]: Non-toxic
- Activity (Acetylcholinesterase [18]): 3.54%
- Activity [19]: 9%
- Activity (Mus musculus [20]): Active
- viability at 20 µM (PC-12 [21]): 80.7%
- Activity (PC-12 [22]): Active
- Activity [23]: Non-toxic
- Papp [24]: 11.5 ×10⁻⁶ cm/s
- fold change (FC) (Drosophila melanogaster [25]): 1.8
- Activity [26]: Non-toxic
- Activity (Mus musculus [27]): Active
- Activity [28]: Non-toxic
- inhibition [29]: Active
- fold change (FC) (Drosophila melanogaster [30]): 1.25
- Activity (Mus musculus [31]): Active
- Activity (Mus musculus [32]): Active
- viability at 2.5 µM (PC-12 [33]): 65.9%
- Activity (Mus musculus [34]): Active
- Activity (PC-12 [35]): Non-toxic
- Activity (Mus musculus [36]): Active
- viability at 5 µM (PC-12 [37]): 71.3%
- viability at 10 µM (PC-12 [38]): 63.3%
- Activity (Mus musculus [39]): Active

SMILES: O=C1O[C@H]([C@@H](O)CO)C(O)=C1O [ASCORBIC ACID]
- IC50 [5]: 3510 nM

SMILES: CC(c1cccc(OC(=O)NCCc2c[nH]c3ccc(O)cc23)c1)N(C)C (stereo not drawn)
- IC50 (Acetylcholinesterase [6]): 2.31 nM
- IC50 (Cholinesterase): 55.8 nM
